The text below walks through data of patent US20220160686A1, “MACROCYCLIC AZOLOPYRIDINE DERIVATIVES AS EED AND PRC2 MODULATORS” (Fulcrum Therapeutics, Inc., priority 2019, published 2022).

Assay [1] addresses T1, biotinylated AVI-tagged EED (76-441) (Homo sapiens, UniProt O75530).
T1 construct: GST (N, cleaved yes); made in house; host or cells: E. coli BL21(DE3), co-expressed with pGro7
The experiment in a line: EED binding SPR assay. The note with it: 1:1 binding model; read-out: KD, equilibrium dissociation constant as measured by surface plasmon resonance (SPR). In outline:
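Biotinylated AVI-EED(76-441) from E. coli was captured on Biotin CAPture chips (2200–2400 RU) in 10 mM HEPES pH 7.4, 150 mM NaCl, 0.05% Tween 20 and 2% DMSO. Compounds were run at 7 concentrations (3-fold dilutions) with 90 s association and 180 s dissociation, chip at 25 °C. Data were fitted to a 1:1 binding model.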
On the technique in general: SPR reads the build-up and loss of mass on a sensor chip optically.

In assay [2] the target is EZH2/PRC2 complex (Homo sapiens, UniProt O75530). Kind of assay: Histone methyltransferase assay (radioisotope-based HotSpot). It is filed as biochemical. The note with it: EZH2/PRC2 complex 10 nM, core histone substrate 0.05 mg/ml, 3H-SAM 1 μM; read-out: IC50, inhibitory effects on the HMT enzyme. The protocol: Effect of compounds of the present disclosure on EZH2/PRC2 complex methyltransferase functional activity was measured using the radioisotope-based HotSpot assay described by Horiuchi, K. Y., et al. Assay Drug Dev Technol. 11(4):227-36 (2013). Briefly, compounds were prepared in a 10-point 3-fold serial dilution in DMSO from a 10 mM stock in ECHO qualified plate using Assist Plus (Integra Biosciences) liquid handler. […] Nanoliter quantities of each compound's concentration series were transferred into the enzyme/substrate mix using (Echo 550, LabCyte Inc. Sunnyvale, Calif.) acoustic dispenser and pre-incubated for 20 min at room temperature. The methylation reaction was initiated by the addition of 1 μl of 5 μM S-Adenosyl-L-[methyl-^3H]methionine (^3H-SAM) and incubated at 30° C. for 1 h. The final concentration of the EZH2/PRC2 complex, core histone substrate and ^3H-SAM were 10 nM, 0.05 mg/ml, and 1 μM respectively. The % activity of test samples were calculated with reference to positive (no compound) and negative (no EZH2/PRC2) controls on the plate using Excel (Microsoft). The resulting values were exported to Prism (GraphPad software) to generate concentration response curves and IC50 values using the four-parameter logistic equation.
Sequence of EZH2/PRC2 complex (O75530 whole entry): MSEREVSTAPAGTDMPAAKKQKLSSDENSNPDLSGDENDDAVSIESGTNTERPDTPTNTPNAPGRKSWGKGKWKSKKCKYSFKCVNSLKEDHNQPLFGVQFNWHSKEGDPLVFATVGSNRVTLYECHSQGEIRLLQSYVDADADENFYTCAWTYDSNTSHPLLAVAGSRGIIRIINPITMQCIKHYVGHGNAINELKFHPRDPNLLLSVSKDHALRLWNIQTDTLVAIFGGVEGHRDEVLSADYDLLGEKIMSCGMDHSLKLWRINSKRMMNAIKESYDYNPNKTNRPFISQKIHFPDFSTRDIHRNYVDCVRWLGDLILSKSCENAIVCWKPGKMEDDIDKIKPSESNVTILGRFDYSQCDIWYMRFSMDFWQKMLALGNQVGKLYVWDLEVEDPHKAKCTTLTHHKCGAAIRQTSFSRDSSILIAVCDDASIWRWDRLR
Sequence of EZH2/PRC2 complex (Q15910 whole entry partner): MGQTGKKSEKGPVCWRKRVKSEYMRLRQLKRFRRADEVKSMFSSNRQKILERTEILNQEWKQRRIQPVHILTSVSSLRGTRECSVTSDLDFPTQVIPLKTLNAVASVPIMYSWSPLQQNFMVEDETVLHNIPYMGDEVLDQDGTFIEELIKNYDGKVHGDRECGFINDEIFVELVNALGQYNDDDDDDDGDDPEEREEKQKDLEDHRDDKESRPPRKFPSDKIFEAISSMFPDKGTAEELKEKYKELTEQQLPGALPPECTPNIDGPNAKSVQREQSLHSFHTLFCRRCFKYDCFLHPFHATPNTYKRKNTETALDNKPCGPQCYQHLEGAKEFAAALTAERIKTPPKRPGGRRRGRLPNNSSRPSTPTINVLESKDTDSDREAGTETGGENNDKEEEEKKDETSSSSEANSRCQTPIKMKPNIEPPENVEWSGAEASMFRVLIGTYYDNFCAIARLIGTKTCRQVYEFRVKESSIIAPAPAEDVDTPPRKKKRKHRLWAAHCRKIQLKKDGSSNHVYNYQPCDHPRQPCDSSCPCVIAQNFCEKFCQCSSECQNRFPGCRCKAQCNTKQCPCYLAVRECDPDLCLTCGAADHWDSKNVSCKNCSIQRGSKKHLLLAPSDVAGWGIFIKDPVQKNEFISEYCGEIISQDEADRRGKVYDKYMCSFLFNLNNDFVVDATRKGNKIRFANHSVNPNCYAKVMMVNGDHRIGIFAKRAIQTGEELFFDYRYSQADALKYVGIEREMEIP
Sequence of EZH2/PRC2 complex (Q15022 whole entry partner): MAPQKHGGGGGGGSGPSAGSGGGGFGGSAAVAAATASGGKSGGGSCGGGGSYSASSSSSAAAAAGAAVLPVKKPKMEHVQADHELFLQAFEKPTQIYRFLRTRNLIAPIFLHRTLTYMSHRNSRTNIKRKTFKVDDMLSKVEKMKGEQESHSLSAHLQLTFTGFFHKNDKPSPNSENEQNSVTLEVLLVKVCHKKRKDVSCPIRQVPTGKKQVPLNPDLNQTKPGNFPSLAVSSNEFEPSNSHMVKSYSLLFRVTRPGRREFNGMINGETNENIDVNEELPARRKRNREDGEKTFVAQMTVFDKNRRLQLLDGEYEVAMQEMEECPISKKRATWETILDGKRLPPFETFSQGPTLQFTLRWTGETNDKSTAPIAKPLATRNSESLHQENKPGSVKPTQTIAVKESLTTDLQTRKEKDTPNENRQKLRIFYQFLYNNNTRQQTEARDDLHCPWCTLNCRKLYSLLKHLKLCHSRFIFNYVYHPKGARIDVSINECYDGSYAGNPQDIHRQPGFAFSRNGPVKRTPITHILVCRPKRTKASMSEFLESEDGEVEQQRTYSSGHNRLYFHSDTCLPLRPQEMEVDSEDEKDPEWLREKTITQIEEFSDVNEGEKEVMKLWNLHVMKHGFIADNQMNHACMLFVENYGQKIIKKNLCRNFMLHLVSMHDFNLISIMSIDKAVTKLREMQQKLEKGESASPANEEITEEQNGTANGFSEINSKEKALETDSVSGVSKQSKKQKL

T1 sequence (O75530 76-441 limits assumed): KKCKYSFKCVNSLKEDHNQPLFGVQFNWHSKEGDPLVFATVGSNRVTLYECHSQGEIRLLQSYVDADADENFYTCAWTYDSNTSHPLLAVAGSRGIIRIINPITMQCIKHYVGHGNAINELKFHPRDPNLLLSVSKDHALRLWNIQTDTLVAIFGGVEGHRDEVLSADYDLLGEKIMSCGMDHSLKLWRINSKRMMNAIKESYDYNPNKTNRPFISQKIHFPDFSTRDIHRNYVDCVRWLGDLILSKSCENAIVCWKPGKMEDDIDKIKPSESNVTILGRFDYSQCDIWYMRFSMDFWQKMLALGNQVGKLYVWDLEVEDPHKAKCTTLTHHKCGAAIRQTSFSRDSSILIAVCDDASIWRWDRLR

As usually defined, the Kd is the equilibrium constant for the complex coming apart. By IC50 is commonly meant the concentration that inhibits the measured activity by half. Regarding `Cc1ncccc1-c1cc2c(n3cnnc13)NCc1cccc3c1[C@H](CO3)CO2` [Compound 1, (15R)-10-(2-methyl-3-pyridyl)-13,17-dioxa-3,5,7,8-tetrazapentacyclo[13.6.1.04,12.05,9.018,22] docosa-1(22),4(12),6,8,10,18,20-heptaene], the equilibrium dissociation constant (Kd) in assay [1] is below 2.5 nM. In addition, the half-inhibitory concentration (IC50) in assay [2] was below 25 nM.

In the case of `CC(=O)N1CCC(c2cc3c(n4cnnc24)NCc2cccc4c2[C@@H](CO4)CO3)CC1` [Compound 3, (S)-1-(4-(7a,8,13,14-tetrahydro-7H-[1,2,4]triazolo[4′,3′:1,6]pyrido[3,2-b]benzofuro[4,3-fg][1,4]oxazonin-4-yl)piperidin-1-yl)ethan-1-one], the Kd in assay [1] is below 2.5 nM. For the same molecule, in assay [2], the 50% inhibitory concentration (IC50) is below 25 nM.

For the molecule `CC(=O)N1CCC(c2cc3c(n4cnnc24)NCc2c(F)cccc2CCO3)CC1` [Compound 4, 1-(4-(12-fluoro-7,8,13,14-tetrahydro-[1,2,4]triazolo[4′,3′:1,6]pyrido[3,2-b]benzo[f][1,4]oxazonin-4-yl)piperidin-1-yl)ethan-1-one], the Kd in assay [1] was in the range of 10 to 50 nM. Further, the IC50 in assay [2] was below 25 nM.

In the case of `Cc1ncccc1-c1cc2c(n3cnnc13)NCc1c(F)cccc1CCO2` [Compound 5, 12-fluoro-4-(2-methylpyridin-3-yl)-7,8,13,14-tetrahydro-[1,2,4]triazolo[4′,3′:1,6]pyrido[3,2-b]benzo[f][1,4]oxazonine], the Kd in assay [1] lay in the range of 5 to 10 nM. For the same molecule, in assay [2], the IC50 lay within 25 to 50 nM.

Consider `Cc1ncccc1-c1cc2c(n3cnnc13)NCc1c(F)cccc1COC2` [Compound 6, 12-fluoro-4-(2-methylpyridin-3-yl)-6,8,13,14-tetrahydro-[1,2,4]triazolo[4′,3′:1,6]pyrido[3,2-c]benzo[g][1,5]oxazonine], for which the dissociation constant (Kd) in assay [1] was above 50 nM. For the same molecule, the IC50 in assay [2] was above 500 nM.

With `Cn1cc(Cc2cc3c(n4cnnc24)NCc2cccc4c2[C@@H](CO4)CO3)cn1` [Compound 7, (S)-4-((1-methyl-1H-pyrazol-4-yl)methyl)-7a,8,13,14-tetrahydro-7H-[1,2,4]triazolo[4′,3′:1,6]pyrido[3,2-b]benzofuro[4,3-fg][1,4]oxazonine], in assay [1], the Kd lay within 10 to 50 nM. The concentration for half-maximal inhibition (IC50) in assay [2] was below 25 nM.

With `Cn1cc(Cc2cc3c(n4cnnc24)NCc2c(F)ccc4c2[C@@H](CO4)CO3)cn1` [Compound 10, (S)-12-fluoro-4-((1-methyl-1H-pyrazol-4-yl)methyl)-7a,8,13,14-tetrahydro-7H-[1,2,4]triazolo[4′,3′:1,6]pyrido[3,2-b]benzofuro[4,3-fg][1,4]oxazonine], the Kd in assay [1] was in the range of 5 to 10 nM. For the same molecule, in assay [2], the IC50 is below 25 nM.

Take `c1cc2c3c(c1)OC[C@H]3COc1ccc3nncn3c1NC2` [Compound 11, (S)-7a,8,13,14-tetrahydro-7H-[1,2,4]triazolo[4′,3′:1,6]pyrido[3,2-b]benzofuro[4,3-fg][1,4]oxazonine]: the Kd in assay [1] was above 50 nM. Further, in assay [2], the IC50 lay within 100 to 500 nM.

Consider `Fc1ccc2c3c1CNc1c(cc(C4COC4)c4nncn14)OC[C@@H]3CO2` [Compound 12, (S)-12-fluoro-4-(oxetan-3-yl)-7a,8,13,14-tetrahydro-7H-[1,2,4]triazolo[4′,3′:1,6]pyrido[3,2-b]benzofuro[4,3-fg][1,4]oxazonine], for which the Kd in assay [1] is 2.5 to 5 nM. In assay [2], the IC50 was below 25 nM.

As for `Cc1ncc(-c2cc3c(n4cnnc24)NCc2c(F)ccc4c2[C@@H](CO4)CO3)c(C)n1` [Compound 13, (S)-4-(2,4-dimethylpyrimidin-5-yl)-12-fluoro-7a,8,13,14-tetrahydro-7H-[1,2,4]triazolo[4′,3′:1,6]pyrido[3,2-b]benzofuro[4,3-fg][1,4]oxazonine], in assay [1], the Kd is below 2.5 nM. For the same molecule, the IC50 in assay [2] is below 25 nM.

In the case of `Cc1ncc(-c2cc3c(n4cnnc24)NCc2c(F)cccc2CCO3)c(C)n1` [Compound 14, 4-(2,4-dimethylpyrimidin-5-yl)-12-fluoro-7,8,13,14-tetrahydro-[1,2,4]triazolo[4′,3′:1,6]pyrido[3,2-b]benzo[f][1,4]oxazonine], the dissociation constant (Kd) in assay [1] lay in the range of 10 to 50 nM. In addition, the IC50 in assay [2] was in the range of 50 to 100 nM.

For the molecule `Cc1cn(-c2cc3c(n4cnnc24)NCc2c(F)ccc4c2[C@@H](CO4)CO3)cn1` [Compound 15, (S)-12-fluoro-4-(4-methyl-1H-imidazol-1-yl)-7a,8,13,14-tetrahydro-7H-[1,2,4]triazolo[4′,3′:1,6]pyrido[3,2-b]benzofuro[4,3-fg][1,4]oxazonine], the Kd in assay [1] was below 2.5 nM. Also, the IC50 in assay [2] was below 25 nM.

Turning to `COC(=O)N1CCC(c2cc3c(n4cnnc24)NCc2c(F)ccc4c2C(CO4)CO3)CC1` [Compound 16, methyl (S)-4-(12-fluoro-7a,8,13,14-tetrahydro-7H-[1,2,4]triazolo[4′,3′:1,6]pyrido[3,2-b]benzofuro[4,3-fg][1,4]oxazonin-4-yl)piperidine-1-carboxylate], the equilibrium dissociation constant (Kd) in assay [1] is below 2.5 nM. Further, in assay [2], the half-maximal inhibitory concentration (IC50) was below 25 nM.

For `Fc1cncnc1-c1cc2c(n3cnnc13)NCc1c(F)ccc3c1[C@@H](CO3)CO2` [Compound 164, (S)-12-fluoro-4-(5-fluoropyrimidin-4-yl)-7a,8,13,14-tetrahydro-7H-[1,2,4]triazolo[4′,3′:1,6]pyrido[3,2-b]benzofuro[4,3-fg][1,4]oxazonine], in assay [1], the Kd is below 2.5 nM. The concentration for half-maximal inhibition (IC50) in assay [2] is below 25 nM.

On to `Fc1ccc2c3c1CNc1c(cc(Br)c4nncn14)OC[C@@H]3CO2` [Compound 165, (S)-4-bromo-12-fluoro-7a,8,13,14-tetrahydro-7H-[1,2,4]triazolo[4′,3′:1,6]pyrido[3,2-b]benzofuro[4,3-fg][1,4]oxazonine], for which, in assay [1], the dissociation constant Kd was in the range of 10 to 50 nM. In addition, the IC50 in assay [2] is below 25 nM.

With `Cn1nc(OC(F)F)cc1-c1cc2c(n3cnnc13)NCc1c(F)ccc3c1[C@@H](CO3)CO2` [Compound 167, (S)-4-(3-(difluoromethoxy)-1-methyl-1H-pyrazol-5-yl)-12-fluoro-7a,8,13,14-tetrahydro-7H-[1,2,4]triazolo[4′,3′:1,6]pyrido[3,2-b]benzofuro[4,3-fg][1,4]oxazonine], the Kd in assay [1] was below 2.5 nM. Moreover, the IC50 in assay [2] is below 25 nM.

In the case of `Cn1nc(F)cc1-c1cc2c(n3cnnc13)NCc1c(F)ccc3c1[C@@H](CO3)CO2` [Compound 168, (S)-12-fluoro-4-(3-fluoro-1-methyl-1H-pyrazol-5-yl)-7a,8,13,14-tetrahydro-7H-[1,2,4]triazolo[4′,3′:1,6]pyrido[3,2-b]benzofuro[4,3-fg][1,4]oxazonine], the Kd in assay [1] is below 2.5 nM. The IC50 in assay [2] was below 25 nM.

For the molecule `Cn1nc(C(C)(C)C#N)cc1-c1cc2c(n3cnnc13)NCc1c(F)ccc3c1[C@@H](CO3)CO2` [Compound 169, (S)-2-(5-(12-fluoro-7a,8,13,14-tetrahydro-7H-[1,2,4]triazolo[4′,3′:1,6]pyrido[3,2-b]benzofuro[4,3-fg][1,4]oxazonin-4-yl)-1-methyl-1H-pyrazol-3-yl)-2-methylpropanenitrile], in assay [1], the Kd is below 2.5 nM. Moreover, the IC50 in assay [2] was below 25 nM.

`Cn1nccc1-c1cc2c(n3cc(C#N)nc13)NCc1c(F)ccc3c1[C@@H](CO3)CO2` [Compound 172, (S)-5-fluoro-12-(1-methyl-1H-pyrazol-5-yl)-6,7,15,15a-tetrahydro-1H-benzofuro[4,3-fg]imidazo[r,2′:1,6]pyrido[3,2-b][1,4]oxazonine-10-carbonitrile]: in assay [1], the dissociation constant (Kd) is below 2.5 nM. Further, in assay [2], the 50% inhibitory concentration (IC50) is below 25 nM.

In the case of `Cn1nccc1-c1cc2c(n3cc(C(N)=O)nc13)NCc1c(F)ccc3c1[C@@H](CO3)CO2` [Compound 175, (S)-5-fluoro-12-(1-methyl-1H-pyrazol-5-yl)-6,7,15,15a-tetrahydro-1H-benzofuro[4,3-fg]imidazo[r,2′:1,6]pyrido[3,2-b][1,4]oxazonine-10-carboxamide], in assay [1], the dissociation constant (Kd) was below 2.5 nM. Also, the IC50 in assay [2] is below 25 nM.

For the molecule `Cc1ncccc1-c1cc2c(n3cc(C(N)=O)nc13)NCc1c(F)ccc3c1[C@@H](CO3)CO2` [Compound 176, (S)-5-fluoro-12-(2-methylpyridin-3-yl)-6,7,15,15a-tetrahydro-1H-benzofuro[4,3-fg]imidazo[r,2′:1,6]pyrido[3,2-b][1,4]oxazonine-10-carboxamide], the Kd in assay [1] lay in the range of 10 to 50 nM. The IC50 in assay [2] is 25 to 50 nM.

Consider `Cc1ncccc1-c1cc2c(n3cc(C#N)nc13)NCc1c(F)ccc3c1[C@@H](CO3)CO2` [Compound 186, (S)-5-fluoro-12-(2-methylpyridin-3-yl)-6,7,15,15a-tetrahydro-1H-benzofuro[4,3-fg]imidazo[1′,2′:1,6]pyrido[3,2-b][1,4]oxazonine-10-carbonitrile], for which, in assay [1], the dissociation constant (Kd) was below 2.5 nM. The IC50 in assay [2] is below 25 nM.
